Measurements as given in PubChem BioAssay AID1745844 (Carcinogenic Potency Database (CPDB), 2022).
Several values for one entry are separate records, joined by “and”; a condition that tells them apart may be missing. Identical values can stand only once. Activity calls are given as the source filed them. The rule behind the calls is not given here.

Tested on: rodent lifetime carcinogenesis bioassay, tumor incidence TD50
Assay: chronic cancer bioassays in animals – CPDB, compiled studies (AID 1745844)
[1] = rat, strain Sprague-Dawley, females, by gavage, site: liver, lesion: hepatocellular carcinoma, dosed 52 weeks, study length 65 weeks

CCCCCCCCCCCCN(C)N=O
TD50 (rat, strain Fischer 344, females, by gavage, site: lung, lesion: one or several types, types not named, dosed 30 weeks, study length 65 weeks): 1.32 mg/kg/day | TD50 (rat, strain Fischer 344, females, by gavage, site: urinary bladder, lesion: one or several types, types not named, dosed 30 weeks, study length 65 weeks): 0.656 mg/kg/day | TD50 (rat, strain Fischer 344, males, by gavage, site: all sites, lesion: leukemia, dosed 30 weeks, study length 112 weeks): 0.97 mg/kg/day | carcinogen call (rat, strain Fischer 344, males, by gavage, site: any site (literature study), lesion: several types, types named in the paper, dosed 30 weeks, study length 112 weeks): positive | TD50 (rat, strain Fischer 344, males, by gavage, site: forestomach, lesion: carcinoma, dosed 30 weeks, study length 112 weeks): 5.07 mg/kg/day | TD50 (rat, strain Fischer 344, males, by gavage, site: forestomach, lesion: papilloma, dosed 30 weeks, study length 112 weeks): 13.9 mg/kg/day | TD50 (rat, strain Fischer 344, males, by gavage, site: liver, lesion: hepatocellular carcinoma, dosed 30 weeks, study length 112 weeks): 8.98 mg/kg/day | TD50 (rat, strain Fischer 344, males, by gavage, site: lung, lesion: adenocarcinoma, dosed 30 weeks, study length 112 weeks): 6.54 mg/kg/day | TD50 (rat, strain Fischer 344, males, by gavage, site: lung, lesion: adenoma, dosed 30 weeks, study length 112 weeks): 28.5 mg/kg/day | TD50 (rat, strain Fischer 344, males, by gavage, site: pancreatic islets, lesion: islet-cell carcinoma, dosed 30 weeks, study length 112 weeks): 2.75 mg/kg/day | carcinogen call (rat, strain Fischer 344, males, by gavage, site: urinary bladder, lesion: transitional-cell carcinoma, dosed 28 weeks, study length 66 weeks): positive | TD50 (rat, strain Fischer 344, males, by gavage, site: urinary bladder, lesion: transitional-cell carcinoma, dosed 30 weeks, study length 112 weeks): 0.487 mg/kg/day

Nc1cc(S(=O)(=O)O)cc2cc(S(=O)(=O)O)c(N=Nc3ccc(-c4ccc(N=Nc5c(S(=O)(=O)O)cc6cc(S(=O)(=O)O)cc(N)c6c5O)cc4)cc3)c(O)c12
TD50 (rat, strain Fischer 344, females, in feed, site: any site (literature study), lesion: several types, types named in the paper, dosed 13 weeks, study length 13 weeks): 3.21 mg/kg/day | TD50 (rat, strain Fischer 344, females, in feed, site: liver, lesion: hepatocellular adenoma + hepatocellular carcinoma + neoplastic nodule, dosed 13 weeks, study length 13 weeks): 3.21 mg/kg/day | TD50 (rat, strain Fischer 344, females, in feed, site: liver, lesion: hepatocellular carcinoma + neoplastic nodule, dosed 13 weeks, study length 13 weeks): 3.21 mg/kg/day | TD50 (rat, strain Fischer 344, females, in feed, site: liver, lesion: hepatocellular carcinoma, dosed 13 weeks, study length 13 weeks): 5.97 mg/kg/day | TD50 (rat, strain Fischer 344, males, in feed, site: any site (literature study), lesion: several types, types named in the paper, dosed 13 weeks, study length 13 weeks): 1.18 mg/kg/day | TD50 (rat, strain Fischer 344, males, in feed, site: liver, lesion: hepatocellular adenoma + hepatocellular carcinoma + neoplastic nodule, dosed 13 weeks, study length 13 weeks): 1.18 mg/kg/day | TD50 (rat, strain Fischer 344, males, in feed, site: liver, lesion: hepatocellular carcinoma + neoplastic nodule, dosed 13 weeks, study length 13 weeks): 1.18 mg/kg/day

C=CCN(CCO)N=O
TD50 (rat, strain Fischer 344, females, in drinking water, site: liver, lesion: hepatocellular carcinoma, dosed 50 weeks, study length 65 weeks): 4.12 mg/kg/day | TD50 (rat, strain Fischer 344, females, in drinking water, site: nasal cavity, lesion: several types, types named in the paper, dosed 50 weeks, study length 65 weeks): 0.491 mg/kg/day

CC(C)(c1ccc(O)cc1)c1ccc(O)cc1
carcinogen call (mouse, strain B6C3F1, females, in feed, site: any site (literature study), lesion: several types, types named in the paper, dosed 103 weeks, study length 107 weeks): negative (inactive) | TD50 (mouse, strain B6C3F1, females, in feed, site: liver, lesion: hepatocellular adenoma + hepatocellular carcinoma + neoplastic nodule, dosed 103 weeks, study length 107 weeks): 13100 mg/kg/day | TD50 (mouse, strain B6C3F1, females, in feed, site: lung, lesion: alveolar/bronchiolar adenoma + alveolar/bronchiolar carcinoma, dosed 103 weeks, study length 107 weeks): 41400 mg/kg/day | TD50 (mouse, strain B6C3F1, males, in feed, site: all sites, lesion: leukemia + lymphoma, dosed 103 weeks, study length 107 weeks): 445 mg/kg/day (inactive) | TD50 (mouse, strain B6C3F1, males, in feed, site: all sites, lesion: lymphoma, dosed 103 weeks, study length 107 weeks): 508 mg/kg/day | TD50 (mouse, strain B6C3F1, males, in feed, site: any site (literature study), lesion: several types, types named in the paper, dosed 103 weeks, study length 107 weeks): 1.32e+06 mg/kg/day | TD50 (mouse, strain B6C3F1, males, in feed, site: pituitary gland, lesion: chromophobe carcinoma, dosed 103 weeks, study length 107 weeks): 6690 mg/kg/day | carcinogen call (rat, strain Fischer 344, females, in feed, site: any site (literature study), lesion: several types, types named in the paper, dosed 103 weeks, study length 108 weeks): negative (inactive) | TD50 (rat, strain Fischer 344, females, in feed, site: liver, lesion: hepatocellular adenoma + hepatocellular carcinoma + neoplastic nodule, dosed 103 weeks, study length 108 weeks): 595 mg/kg/day | TD50 (rat, strain Fischer 344, males, in feed, site: mammary gland, lesion: fibroadenoma, dosed 103 weeks, study length 108 weeks): 675 mg/kg/day (inactive)

CC/C(=C(\c1ccccc1)c1ccc(OCCN(C)C)cc1)c1ccccc1
TD50 (mouse, strain AP Alderly Park, females, several routes, site: ovary, lesion: granulosa-cell adenoma, dosed 65 weeks, study length 65 weeks): 3 mg/kg/day | TD50 (mouse, strain AP Alderly Park, males, several routes, site: testis, lesion: interstitial-cell adenoma, dosed 65 weeks, study length 65 weeks): 8.18 mg/kg/day | TD50 (mouse, strain AP Alderly Park, males, several routes, site: testis, lesion: interstitial-cell tumor, dosed 56 weeks, study length 56 weeks): 9.8 mg/kg/day | TD50 (mouse, strain B6C3F1, females, in feed, site: liver, lesion: hepatocellular adenoma, dosed 104 weeks, study length 104 weeks): 101 mg/kg/day (inactive) | carcinogen call (mouse, strain B6C3F1, females, in feed, site: lung, lesion: alveolar-cell carcinoma, dosed 104 weeks, study length 104 weeks): negative (inactive) | carcinogen call (mouse, strain B6C3F1, females, in feed, site: uterus, lesion: leiomyoma, dosed 104 weeks, study length 104 weeks): negative (inactive) | carcinogen call (mouse, strain C57BL/6, females, in feed, site: liver, lesion: hepatocellular carcinoma, dosed 52 weeks, study length 52 weeks): negative (inactive) | carcinogen call (mouse, strain DBA/2, females, in feed, site: liver, lesion: hepatocellular carcinoma, dosed 52 weeks, study length 52 weeks): negative (inactive) | TD50 (rat, strain Alpk:APfSD, females, by gavage, site: liver, lesion: biliary cystadenoma, dosed 88 weeks, study length 107 weeks): 706 mg/kg/day | TD50 (rat, strain Alpk:APfSD, females, by gavage, site: liver, lesion: cholangioma, dosed 88 weeks, study length 107 weeks): 2260 mg/kg/day | TD50 (rat, strain Alpk:APfSD, females, by gavage, site: liver, lesion: hepatocellular adenoma, dosed 88 weeks, study length 107 weeks): 135 mg/kg/day | TD50 (rat, strain Alpk:APfSD, females, by gavage, site: liver, lesion: hepatocellular carcinoma, dosed 88 weeks, study length 107 weeks): 17 mg/kg/day | TD50 (rat, strain Alpk:APfSD, females, by gavage, site: liver, lesion: hepatocholangiocarcinoma, dosed 88 weeks, study length 107 weeks): 241 mg/kg/day | TD50 (rat, strain Alpk:APfSD, males, by gavage, site: liver, lesion: biliary cystadenoma, dosed 88 weeks, study length 107 weeks): 1100 mg/kg/day | TD50 (rat, strain Alpk:APfSD, males, by gavage, site: liver, lesion: hepatocellular adenoma, dosed 88 weeks, study length 107 weeks): 47.9 mg/kg/day | TD50 (rat, strain Alpk:APfSD, males, by gavage, site: liver, lesion: hepatocellular carcinoma, dosed 88 weeks, study length 107 weeks): 18.7 mg/kg/day | TD50 (rat, strain Alpk:APfSD, males, by gavage, site: liver, lesion: hepatocholangiocarcinoma, dosed 88 weeks, study length 107 weeks): 306 mg/kg/day | TD50 (rat, strain Charles River CD (Sprague-Dawley), females, by gavage, site: liver, lesion: hepatocellular adenoma, dosed 51 weeks, study length 65 weeks): 7.77 mg/kg/day | TD50 (rat, strain Charles River CD (Sprague-Dawley), females, by gavage, site: liver, lesion: hepatocellular adenoma, dosed 52 weeks, study length 65 weeks): 4.35 mg/kg/day | TD50 (rat, strain Charles River CD (Sprague-Dawley), females, by gavage, site: liver, lesion: hepatocellular carcinoma, dosed 51 weeks, study length 65 weeks): 7.77 mg/kg/day | TD50 (rat, strain Charles River CD (Sprague-Dawley), females, by gavage, site: liver, lesion: hepatocellular carcinoma, dosed 52 weeks, study length 52 weeks): 2.12 mg/kg/day and 10.3 mg/kg/day | TD50 (rat, strain Charles River CD (Sprague-Dawley), females, by gavage, site: liver, lesion: hepatocellular carcinoma, dosed 52 weeks, study length 65 weeks): 4.62 mg/kg/day | TD50 (rat, strain Charles River CD (Sprague-Dawley), females, by gavage, site: liver, lesion: several types, types named in the paper, dosed 52 weeks, study length 52 weeks): 1.44 mg/kg/day | TD50 (rat, strain Charles River CD (Sprague-Dawley), females, by gavage, site: liver, lesion: several types, types named in the paper, dosed 52 weeks, study length 65 weeks): 3.86 mg/kg/day | TD50 (rat, strain Fischer 344/Tox, females, in feed, site: liver, lesion: hepatocellular carcinoma, dosed 86 weeks, study length 86 weeks): 4.18 mg/kg/day | TD50 (rat, strain Lewis, females, in feed, site: liver, lesion: hepatocellular carcinoma, dosed 48 weeks, study length 48 weeks): 1.38 mg/kg/day | TD50 (rat, strain Sprague-Dawley, females, by gavage, site: any site (literature study), lesion: malignant tumor, dosed 167 weeks, study length 167 weeks): 88.7 mg/kg/day | TD50 (rat, strain Sprague-Dawley, females, by gavage, site: liver, lesion: hepatocellular adenoma, dosed 167 weeks, study length 167 weeks): 497 mg/kg/day | TD50 (rat, strain Sprague-Dawley, females, by gavage, site: liver, lesion: hepatocellular carcinoma, dosed 52 weeks, study length 52 weeks): 11.8 mg/kg/day and 7.56 mg/kg/day and 4.79 mg/kg/day | TD50 [1]: 18.9 mg/kg/day and 6 mg/kg/day | carcinogen call [1]: positive | TD50 (rat, strain Sprague-Dawley, females, by gavage, site: liver, lesion: hepatocellular carcinoma, dosed 167 weeks, study length 167 weeks): 164 mg/kg/day | carcinogen call (rat, strain Sprague-Dawley, females, by gavage, site: liver, lesion: several types, types named in the paper, dosed 52 weeks, study length 52 weeks): positive | TD50 (rat, strain Sprague-Dawley, females, by gavage, site: uterus, lesion: fibroma, dosed 167 weeks, study length 167 weeks): 247 mg/kg/day | TD50 (rat, strain Sprague-Dawley, females, by gavage, site: uterus, lesion: sarcoma, dosed 167 weeks, study length 167 weeks): 487 mg/kg/day | TD50 (rat, strain Sprague-Dawley, females, by gavage, site: uterus, lesion: squamous-cell carcinoma, dosed 167 weeks, study length 167 weeks): 497 mg/kg/day | TD50 (rat, strain Sprague-Dawley, females, by gavage, site: vagina, lesion: squamous-cell carcinoma, dosed 167 weeks, study length 167 weeks): 497 mg/kg/day | TD50 (rat, strain Sprague-Dawley, males, by gavage, site: any site (literature study), lesion: malignant tumor, dosed 167 weeks, study length 167 weeks): 187 mg/kg/day | TD50 (rat, strain Sprague-Dawley, males, by gavage, site: liver, lesion: hepatocellular adenoma, dosed 167 weeks, study length 167 weeks): 497 mg/kg/day | TD50 (rat, strain Sprague-Dawley, males, by gavage, site: liver, lesion: hepatocellular carcinoma, dosed 167 weeks, study length 167 weeks): 247 mg/kg/day | TD50 (rat, strain Sprague-Dawley, males, by gavage, site: mammary tissue, wider than the gland, lesion: adenocarcinoma, dosed 167 weeks, study length 167 weeks): 247 mg/kg/day | TD50 (rat, strain Sprague-Dawley, males, by gavage, site: mammary tissue, wider than the gland, lesion: benign tumor, dosed 167 weeks, study length 167 weeks): 96.4 mg/kg/day | TD50 (rat, strain Wistar/LAC-P, females, in feed, site: liver, lesion: hepatocellular carcinoma, dosed 49 weeks, study length 49 weeks): 1.36 mg/kg/day
